Measurements as given in patent publication US6602906B1 (priority 2002, dated 2003).
Like-named read-outs stand apart in the source and are kept apart here. One block for each compound: values may come before it.

Legend:
pig skin = conditions: applied topically prior to UVB; cited from earlier work
[1] = in the human; cited from earlier work
mouse skin = conditions: topical application, (hairless) mice; cited from earlier work
mice = conditions: topical; cited from earlier work
human skin = conditions: applied topically prior to UVB; cited from earlier work
skin of humans = conditions: topical application; cited from earlier work
[2] = 20 wt %, pH 2.0; cited from earlier work
[3] = neutral pH; cited from earlier work
inflamed skin = inflamed skin treated with acetone; cited from earlier work
[4] = Storage stability of the 5.0 wt % topical solution; format: physicochemical
Procedure: For topical use, a homogeneous solution in accordance with the present invention containing 5.0 wt % 5,6-O-isopropylidene L-ascorbic acid was prepared by mixing the ingredients shown in TABLE 1. The ingredients were added in the order given and in the given amounts. The solution was prepared in a glass container with continuous stirring. After the addition of the zinc sulfate, and again after the addition of the glycerin, the solution was heated to approximately 60° C. The heating increased the solubility of the 2-phenoxyethanol and of the 5,6-O-isopropylidene L-ascorbic acid. The solution was then filtered through a fine plastic mesh, yielding a clear, colorless to very pale yellow liquid. The 5,6-O-isopropylidene L-ascorbic acid in this solution will retain its potency for approximately six months if the solution is stored at room temperature in a bottle that is impervious to ultraviolet light. In darkness at 10° C., 5,6-O-isopropylidene L-ascorbic acid in solution will remain stable and potent for approximately 18 months.

[5] = cited from earlier work

SMILES: O=C1O[C@H]([C@@H](O)CO)C(O)=C1O [ascorbic acid]
erythema and sunburn after UVB irradiation (pig skin): erythema and sunburn were prevented | pKa (pKa of the molecule): […] | half-life [1]: about 20 days | photoaging changes / protection against photoaging in mouse skin (mouse skin): decreased | protection against UV-induced immunosuppression and tolerance to contact antigen (mice): protect against UV-induced immunosuppression | erythema and sunburn after UVB irradiation (human skin): erythema and sunburn were prevented | photoaging changes in the skin (skin of humans): decreased | skin irritation [2]: highly irritating to the skin | stability in aqueous solutions [3]: very unstable

SMILES: CC(C)=O [acetone]
erythema and edema (inflamed skin): diminished | presence of mononuclear cells (indicator of inflammation) (inflamed skin): significant decrease

time the compound in solution retains its potency ([4]; 5.0 wt % solution of TABLE 1, room temperature, bottle impervious to ultraviolet light): approximately six | time the compound in solution remains stable and potent ([4]; solution, in darkness at 10° C.): approximately 18 months
SMILES: CC1(C)OC[C@@H]([C@H]2OC(=O)C(O)=C2O)O1 [5,6-O-isopropylidene L-ascorbic acid]

SMILES: O=C1O[C@H]([C@@H](O)CO)C([O-])=C1OP(=O)([O-])[O-].O=C1O[C@H]([C@@H](O)CO)C([O-])=C1OP(=O)([O-])[O-].[Mg+2].[Mg+2].[Mg+2] [magnesium ascorbyl 2-phosphate]
skin levels of ascorbic acid ([5]; topical serum containing 13 wt %): failed to increase skin levels of ascorbic acid

SMILES: CCCCCCCCCCCCCCCC(=O)OC[C@H](O)[C@H]1OC(=O)C(O)=C1O [ascorbyl-6-palmitate, Ascorbyl-6-palmitate]
photoaging changes / protection against photoaging in mouse skin (mouse skin): failed to demonstrate protection against photoaging | skin levels of ascorbic acid ([5]; topical serum containing 10 wt %): no significant increase
